Results taken from article PMC10178204, “Peptaibol Analogs Show Potent Antibacterial Activity against Multidrug Resistant Opportunistic Pathogens” (International Journal of Molecular Sciences, 2023).
Values after ≈ are worked out from the molar mass of the structure shown. Read-outs that look alike come from different tables or passages of the source. Non-standard residues stand in square brackets, D forms with d. Residues, ends and D or L forms follow the SMILES beside them. *: point of attachment. Leu(ol) = CC(C)C[C@H](N)CO; Octanoyl = CCCCCCCC(=O)*; Api = NC1(C(=O)O)CCNCC1; Aib = CC(C)(N)C(=O)O

Columns and labels:
[1] = system: Acinetobacter baumannii ATCC 17978; conditions: for MIC Aba: MHB, 5 × 10^5 CFU/mL, 18 h, 35 °C, triplicate
Source text: (§1) The antibacterial activity of the peptides was initially assessed on a panel of representative Gram-positive and Gram-negative organisms of high clinical relevance and commonly responsible for bacterial infections in both animals and humans. Bacillus subtilis ATCC 6633 (Bsu) was also included as a rod-shaped model Gram-positive organism. This first panel comprised: Enterococcus faecalis ATCC 29212 (Efa); Streptococcus pyogenes ATCC 12344 (Spy); and Staphylococcus aureus ATCC 25923 (Sau); Gram-negative: Escherichia coli CCUGT (Eco), Klebsiella pneumoniae ATCC 13833 (Kpn), Acinetobacter baumannii ATCC 17978 (Aba), and Pseudomonas aeruginosa ATCC 27853 (Pae) (Table 2). Both the minimum inhibitory concentration (MIC, Table 2) and the minimum bactericidal concentration (MBC, Table S1, Supporting Material) were determined.
(§2) The minimum inhibitory concentration (MIC) and the minimum bactericidal concentration (MBC) of the compounds were determined in triplicate using Mueller–Hinton broth (MHB). […] Therefore, we decided to dissolve all peptides in DMSO to a final concentration of 25 mg/mL, for consistency. The bacteria inoculum was 5 × 10^5 CFU/mL, as recommended by CLSI (Document M07-A10, 2015). […] Reference-type strains, including representatives of both Gram-positive bacteria (Bacillus subtilis ATCC 6633, Enterococcus faecalis ATCC 29212, Staphylococcus aureus ATCC 25923, the methicillin-resistant Staphylococcus aureus ATCC 43300 (MRSA), Streptococcus pyogenes ATCC 12344) and Gram-negative bacteria (Escherichia coli CCUGT, Klebsiella pneumoniae ATCC 13833, Pseudomonas aeruginosa ATCC 27853, and Acinetobacter baumannii ATCC 17978), were acquired from ATCC or CCUG culture collections. Other antibiotic-resistant clinical isolates were present in our collection at the University Teaching Hospital (Azienda Ospedaliero-Universitaria Senese ‘Santa Maria alle Scotte’) in Siena, Tuscany, Italy. Specifically, MDR carbapenem-hydrolyzing class D β-lactamase-producing Acinetobacter baumannii and metallo-β-lactamase-producing Pseudomonas aeruginosa were used in this study (Table 4).

[2] = system: Bacillus subtilis ATCC 6633
Source text: as §1, §2

[3] = system: Enterococcus faecalis ATCC 29212
Source text: as §1, §2

Escherichia coli CCUGT = conditions: 18 h; for MIC Eco: MHB, 5 × 10^5 CFU/mL, 35 °C, triplicate
Source text: as §1, §2

[4] = system: Klebsiella pneumoniae ATCC 13833; conditions: for MIC Kpn: MHB, 5 × 10^5 CFU/mL, 18 h, 35 °C, triplicate
Source text: as §1, §2

[5] = system: Pseudomonas aeruginosa ATCC 27853; conditions: for MIC Pae: MHB, 5 × 10^5 CFU/mL, 18 h, 35 °C, triplicate
Source text: as §1, §2

[6] = system: Staphylococcus aureus ATCC 25923
Source text: as §1, §2

[7] = system: Streptococcus pyogenes ATCC 12344
Source text: as §1, §2

[8] = system: blood agar plate (Columbia CNA Agar); test: Hemolysis on blood agar plate; conditions: 35 ± 2 °C, 24 h; for Hemolysis (class): 50 μg peptide (2 μL of 25 mg/mL in DMSO) spotted on blood agar, visual, triplicate; for Hemolytic activity (in words) / Hemolysis (d, diameter of hemolysis zone): 50 μg spotted on blood agar; for Hemolysis (d, diameter of hemolysis zone): average of triplicate
Method: Hemolysis zones were visually determined and measured. […] For two additional peptides (6 and 15), only a small hemolysis zone (diameter 4–5 mm) was visible, as compared to that of the positive control (Triton X-100, 13 mm).
Briefly, 2 μL of each peptide solution in DMSO (25 mg/mL), corresponding to 50 μg, was spotted on the surface of a blood agar plate (Columbia CNA Agar, Becton Dickinson Italia S.p.A., Florence, Italy). The plate was then incubated at 35 ± 2 °C for 24 h and visually inspected for the presence of hemolysis zones (see Figure S13, Supplementary Material). The experiment was performed in triplicate. Table 2 reports the average value of the diameter of hemolysis zones measured in each individual experiment. Triton X-100 was used as a positive control (diameter of the hemolysis zone: 13 mm), while DMSO was used as a negative control.
Figure S13. Implementation of the hemolysis test as described in Bechlars et al.. After spotting
2 µL (50 µg) of each compound at a random location on the blood agar plate and incubation at 35 ±
2 °C for 24 h, the plates were manually inspected for the presence of hemolysis zones. Triton X-100
and DMSO were used as the positive and negative controls, respectively. Results were interpreted
(1 picture or pasted object on this page, not shown here)

[9] = MHB, 5 × 10^5 CFU/mL, 18 h, 35 °C, triplicate

Compound	MIC Aba [1]	MIC Bsu [2, 9]	MIC Efa [3, 9]	MIC Eco (Escherichia coli CCUGT)	MIC Kpn [4]	MIC Pae [5]	MIC Sau [6, 9]	MIC Spy [7, 9]	Hemolysis (class) [8]	also measured
CCCCCCCC(=O)NC(C)(C)C(=O)NCC(=O)N[C@@H](CC(C)C)C(=O)NC(C)(C)C(=O)NCC(=O)NCC(=O)N[C@@H](CC(C)C)C(=O)NC(C)(C)C(=O)NCC(=O)N[C@H](C(=O)N[C@H](CO)CC(C)C)[C@@H](C)CC [Peptide 0, Trichogin GA IV, reference compound] (Octanoyl-[Aib]GL[Aib]GGL[Aib]GI[Leu(ol)])	> 128 µg/mL	16 µg/mL (≈ 15 µM)	16 µg/mL (≈ 15 µM)	> 128 µg/mL	> 128 µg/mL	> 128 µg/mL	> 128 µg/mL	16 µg/mL (≈ 15 µM)	-	MBC Bsu [2, 9]: 32 µg/mL (≈ 30 µM); MBC Efa [3, 9]: 32 µg/mL (≈ 30 µM); MBC Spy [7, 9]: 16 µg/mL (≈ 15 µM)
CCCCCCCC(=O)NC(C)(C)C(=O)NCC(=O)N[C@@H](CC(C)C)C(=O)N[C@@H](CC(C)C)C(=O)NCC(=O)NCC(=O)N[C@@H](CC(C)C)C(=O)NC(C)(C)C(=O)NCC(=O)N[C@H](C(=O)N[C@@H](CC(C)C)C(N)=O)[C@@H](C)CC [Peptide 3, 1-Oct-Aib-Gly-Leu-Leu-Gly-Gly-Leu-Aib-Gly-Ile-Leu-NH2] (Octanoyl-[Aib]GLLGGL[Aib]GIL-NH2)	> 128 µg/mL	> 128 µg/mL	> 128 µg/mL	> 128 µg/mL	> 128 µg/mL	> 128 µg/mL	> 128 µg/mL	> 128 µg/mL	-	Hemolytic activity (in words) [8]: no hemolysis detected
CCCCCCCC(=O)NC(C)(C)C(=O)NCC(=O)N[C@@H](CC(C)C)C(=O)NC(C)(C)C(=O)N[C@@H](CCCCN)C(=O)NC(C)(C)C(=O)N[C@@H](CC(C)C)C(=O)NC(C)(C)C(=O)NCC(=O)N[C@H](C(=O)N[C@@H](CC(C)C)C(N)=O)[C@@H](C)CC [Peptide 6b, 1-Oct-Aib-Gly-Leu-Aib-Lys-Aib-Leu-Aib-Gly-Ile-Leu-NH2] (Octanoyl-[Aib]GL[Aib]K[Aib]L[Aib]GIL-NH2)	> 128 µg/mL	128 µg/mL (≈ 109 µM)	128 µg/mL (≈ 109 µM)	> 128 µg/mL	> 128 µg/mL	> 128 µg/mL	128 µg/mL (≈ 109 µM)	8 µg/mL (≈ 6.79 µM)	-	MBC Bsu [2, 9]: 128 µg/mL (≈ 109 µM); MBC Efa [3, 9]: 128 µg/mL (≈ 109 µM); MBC Sau [6, 9]: 128 µg/mL (≈ 109 µM); MBC Spy [7, 9]: 32 µg/mL (≈ 27.2 µM)
CCCCCCCC(=O)NC(C)(C)C(=O)NCC(=O)N[C@@H](CC(C)C)C(=O)NC(C)(C)C(=O)NCC(=O)NCC(=O)N[C@@H](CC(C)C)C(=O)NC1(C(=O)NCC(=O)N[C@H](C(=O)N[C@@H](CC(C)C)C(N)=O)[C@@H](C)CC)CCNCC1 [Peptide 8, 1-Oct-Aib-Gly-Leu-Aib-Gly-Gly-Leu-Api-Gly-Ile-Leu-NH2] (Octanoyl-[Aib]GL[Aib]GGL[Api]GIL-NH2)	> 128 µg/mL	32 µg/mL (≈ 28.6 µM)	16 µg/mL (≈ 14.3 µM)	> 128 µg/mL	> 128 µg/mL	> 128 µg/mL	> 128 µg/mL	16 µg/mL (≈ 14.3 µM)	+	Hemolytic activity (in words) [8]: hemolytic activity; Hemolysis (d, diameter of hemolysis zone) [8]: 7 mm
CCCCCCCC(=O)NC(C)(C)C(=O)N[C@@H](CCCCN)C(=O)N[C@@H](CCCCN)C(=O)N[C@@H](CC(C)C)C(=O)NC(C)(C)C(=O)NCC(=O)N[C@H](C(=O)N[C@@H](CC(C)C)C(N)=O)[C@@H](C)CC [Peptide 12, 1-Oct-Aib-Lys-Lys-Leu-Aib-Gly-Ile-Leu-NH2] (Octanoyl-[Aib]KKL[Aib]GIL-NH2)	32 µg/mL (≈ 33.1 µM)	4 µg/mL (≈ 4.14 µM)	32 µg/mL (≈ 33.1 µM)	16 µg/mL (≈ 16.6 µM)	64 µg/mL (≈ 66.2 µM)	64 µg/mL (≈ 66.2 µM)	16 µg/mL (≈ 16.6 µM)	16 µg/mL (≈ 16.6 µM)		MBC Aba ([1]; ATCC 17978, 18 h): 32 µg/mL (≈ 33.1 µM); MBC Bsu ([2]; ATCC 6633, 18 h): 16 µg/mL (≈ 16.6 µM); MBC Efa ([3]; ATCC 29212, 18 h): 32 µg/mL (≈ 33.1 µM); MBC Eco (Escherichia coli CCUGT; CCUGT): 64 µg/mL (≈ 66.2 µM); MBC Kpn ([4]; ATCC 13833, 18 h): > 128 µg/mL; MBC Pae ([5]; ATCC 27853, 18 h): > 128 µg/mL; MBC Sau ([6]; ATCC 25923, 18 h): 16 µg/mL (≈ 16.6 µM); MBC Spy ([7]; ATCC 12344, 18 h): 16 µg/mL (≈ 16.6 µM)
CCCCCCCC(=O)NC(C)(C)C(=O)N[C@@H](CCCCN)C(=O)N[C@@H](CCCCN)C(=O)N[C@@H](CC(C)C)C(=O)N[C@@H](CC(C)C)C(N)=O [Peptide 13, 1-Oct-Aib-Lys-Lys-Leu-Leu-NH2] (Octanoyl-[Aib]KKLL-NH2)	> 128 µg/mL	32 µg/mL (≈ 45 µM)	> 128 µg/mL	> 128 µg/mL	> 128 µg/mL	> 128 µg/mL	> 128 µg/mL	> 128 µg/mL		MBC Bsu ([2]; ATCC 6633, 18 h): 64 µg/mL (≈ 90 µM)
CCCCCCCC(=O)N[C@@H](CC(C)C)C(=O)NC(C)(C)C(=O)N[C@@H](CCCCN)C(=O)N[C@H](C(N)=O)[C@@H](C)CC [Peptide 14, 1-Oct-Leu-Aib-Lys-Ile-NH2] (Octanoyl-L[Aib]KI-NH2)	> 128 µg/mL	> 128 µg/mL	> 128 µg/mL	> 128 µg/mL	> 128 µg/mL	> 128 µg/mL	> 128 µg/mL	> 128 µg/mL		
CCCCCCCC(=O)N[C@@H](CC(C)C)C(=O)NC(C)(C)C(=O)N[C@@H](CCCCN)C(=O)N[C@@H](CC(C)C)C(N)=O [Peptide 16, 1-Oct-Leu-Aib-Lys-Leu-NH2] (Octanoyl-L[Aib]KL-NH2)	> 128 µg/mL	> 128 µg/mL	> 128 µg/mL	> 128 µg/mL	> 128 µg/mL	> 128 µg/mL	> 128 µg/mL	> 128 µg/mL		
CCCCCCCC(=O)N[C@@H](CCCCN)C(=O)N[C@@H](CC(C)C)C(=O)NC(C)(C)C(=O)N[C@@H](CC(C)C)C(N)=O [Peptide 17, 1-Oct-Lys-Leu-Aib-Leu-NH2] (Octanoyl-KL[Aib]L-NH2)	> 128 µg/mL	> 128 µg/mL	> 128 µg/mL	> 128 µg/mL	> 128 µg/mL	> 128 µg/mL	> 128 µg/mL	> 128 µg/mL		
CCCCCCCC(=O)N[C@@H](CC(C)C)C(=O)N[C@@H](CCCCN)C(=O)NC(C)(C)C(=O)N[C@@H](CC(C)C)C(N)=O [Peptide 18, 1-Oct-Leu-Lys-Aib-Leu-NH2] (Octanoyl-LK[Aib]L-NH2)	> 128 µg/mL	128 µg/mL (≈ 220 µM)	> 128 µg/mL	> 128 µg/mL	> 128 µg/mL	> 128 µg/mL	> 128 µg/mL	128 µg/mL (≈ 220 µM)		MBC Bsu ([2]; ATCC 6633, 18 h): > 128 µg/mL
Triton X-100 [reference compound]										Hemolysis (d, diameter of hemolysis zone) [8]: 13 mm
